According to US11912668B2, “GCN2 and perk kinase inhibitors and methods of use thereof” (Deciphera Pharmaceuticals, LLC, priority 2020, dated 2024):
pIC50: −log10 of the molar value.

Legend:
[1] = tested on: ATF4 in HCT116 colorectal cancer cells; experiment: HCT116 amino acid starved (-AA) ATF4 assay (Western blot); format: cell-based; settings: Homo sapiens, HCT-116, 4 h
Protocol: (§1) HCT116 colorectal cancer cells (catalog #CCL-247) were obtained from the American Type Culture Collect (ATTC, Manassas, VA). Briefly, cells were grown in RPMI 1640 supplemented with 10% heat inactivated fetal bovine serum (Invitrogen, Carlsbad, CA) and 1% Penicillin/Streptomycin/L-Glutamine at 37° C., 5% CO2, and 95% humidity. Cells were expanded until reaching 70-95% confluency at which point they were subcultured or harvested for assay use. Cells were seeded in 12-well culture plate at five hundred thousand cells per well in 1 mL complete growth medium and incubated overnight at 37° C., 5% CO2, and 95% humidity. The next day each well was replaced with 1 mL Earle's Balanced Salt Solution (EBSS, Invitrogen, Carlsbad, CA) supplemented with 10% Dialyzed Fetal Bovine Serum, 5.5 mM Glucose, 1% Penicillin/Streptomycin and 1% Vitamin solution (thermo #11120052). A serial dilution of test compound was dispensed into well. Plates were incubated for 4 h at 37° C., 5% CO2, and 95% humidity. At the end of the incubation, cells were washed with PBS supplemented with 1× Halt protease inhibitor, 1× Halt phosphatase inhibitor, 1× Sigma phosphatase inhibitor cocktail 2 and 1×EDTA and then lysed with M-PER Mammalian Protein Extraction Reagent supplemented with 3× of the inhibitor mix as described above. Cell lysates were sonicated with water bath sonicator (Qsonica, Newtown, CT) and supernatants were boiled with SDS buffer and reducing agent. Western blot was performed on each lysate to quantify phospho-GCN2 (Thr899), total GCN2, ATF4 and beta-Actin. Membranes were imaged with LI-COR Odyssey CLx Imaging System (LI-COR, Lincoln, NE). Data were analyzed using GraphPad Prism software (GraphPad, San Diego, CA) to calculate IC50 values.

[2] = tested on: ATF4 in CCRF-CEM leukemia cells (PERK); experiment: CCRF-CEM TG ATF4 ELISA, phenotypic assay for cellular inhibition of PERK preactivated by thapsigargin; format: cell-based; settings: Homo sapiens; Thapsigargin (1 μM) stimulated CCRF-CEM cells
[3] = biological target: PERK kinase (Homo sapiens (Human), UniProt Q9NZJ5); experiment: Biochemical assay for PERK (coupled pyruvate kinase/lactate dehydrogenase assay); settings: 1 mM ATP, rate from 2-3 h time frame
How it was run: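 Coupled pyruvate kinase/lactate dehydrogenase readout of ATP hydrolysis via NADH oxidation (A340), 10 nM PERK, 0.25 mg/mL myelin basic protein, 1 mM ATP, pH 7.5 Tris/MgCl2 buffer, 1% DMSO. Absorbance followed 6 h at 30° C; rate from the 2-3 h window, normalised to no-compound and known-inhibitor controls, IC50 fitted.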

[4] = tested on: phospho-GCN2 (Thr899) in HCT116 colorectal cancer cells; experiment: HCT116 amino acid starved (-AA) phospho-GCN2 assay (Western blot); format: cell-based; settings: Homo sapiens, HCT-116, 4 h, read-out: HCT116-AA pGCN2 Western Blot
Protocol: as §1

[5] = biological target: GCN2 kinase (Homo sapiens (Human), UniProt Q9P2K8); experiment: Biochemical assay for GCN2 (TR-FRET kinase activity assay); settings: 1 mM ATP, 3-hour incubation
How it was run: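 TR-FRET assay with 2 nM GCN2, 130 nM GFP-eIF2α substrate, 0.2 mg/mL E. coli tRNA and 1 mM ATP; compounds (0.5% DMSO) reacted 3 h. Stopped with 20 mM EDTA plus 2 nM Tb-anti-peIF2α (pSer52), 60 min RT; 520/490 ratio converted to % inhibition, IC50 from four-parameter fit.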

[6] = tested on: CCRF-CEM leukemia cells; experiment: CCRF-CEM ASNase cell proliferation assay, phenotypic assay for cellular inhibition of GCN2; format: cell-based; settings: Homo sapiens; ASNase treated CCRF-CEM cells, 1 mU/mL ASNase, 72 h
How it was run: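 Cells were seeded at ten thousand per well in RPMI-1640 with 10% heat-inactivated FBS and treated in triplicate with serially diluted compound plus 1 mU/mL ASNase for 72 h at 37 °C, 5% CO2. Resazurin was then added for 6 h, with fluorescence read at ex 540/em 600 nm to derive IC50 values.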

Sequence of PERK kinase (Q9NZJ5 other isoform, or with tags, fused parts or gaps): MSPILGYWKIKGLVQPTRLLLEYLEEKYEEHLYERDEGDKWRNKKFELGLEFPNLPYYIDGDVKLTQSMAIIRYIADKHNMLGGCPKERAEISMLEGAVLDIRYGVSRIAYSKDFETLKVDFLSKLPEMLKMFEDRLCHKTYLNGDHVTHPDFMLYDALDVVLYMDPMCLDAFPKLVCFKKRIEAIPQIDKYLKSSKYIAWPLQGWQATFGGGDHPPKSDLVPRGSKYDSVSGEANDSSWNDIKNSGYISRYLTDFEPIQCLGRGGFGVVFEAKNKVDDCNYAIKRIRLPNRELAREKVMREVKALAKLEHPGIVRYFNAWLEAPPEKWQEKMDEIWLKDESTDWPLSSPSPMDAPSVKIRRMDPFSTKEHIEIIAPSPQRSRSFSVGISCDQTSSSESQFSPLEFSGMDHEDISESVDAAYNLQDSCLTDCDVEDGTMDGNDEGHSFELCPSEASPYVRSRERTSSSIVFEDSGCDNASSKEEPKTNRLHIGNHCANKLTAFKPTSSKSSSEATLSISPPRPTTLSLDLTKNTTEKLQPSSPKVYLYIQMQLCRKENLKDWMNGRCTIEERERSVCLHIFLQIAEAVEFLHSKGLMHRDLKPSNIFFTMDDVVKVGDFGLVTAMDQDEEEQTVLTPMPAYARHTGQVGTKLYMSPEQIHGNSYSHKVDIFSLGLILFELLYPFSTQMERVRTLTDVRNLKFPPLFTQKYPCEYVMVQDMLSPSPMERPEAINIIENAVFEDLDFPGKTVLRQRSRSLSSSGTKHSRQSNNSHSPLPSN
Sequence of GCN2 kinase (Q9P2K8 whole entry): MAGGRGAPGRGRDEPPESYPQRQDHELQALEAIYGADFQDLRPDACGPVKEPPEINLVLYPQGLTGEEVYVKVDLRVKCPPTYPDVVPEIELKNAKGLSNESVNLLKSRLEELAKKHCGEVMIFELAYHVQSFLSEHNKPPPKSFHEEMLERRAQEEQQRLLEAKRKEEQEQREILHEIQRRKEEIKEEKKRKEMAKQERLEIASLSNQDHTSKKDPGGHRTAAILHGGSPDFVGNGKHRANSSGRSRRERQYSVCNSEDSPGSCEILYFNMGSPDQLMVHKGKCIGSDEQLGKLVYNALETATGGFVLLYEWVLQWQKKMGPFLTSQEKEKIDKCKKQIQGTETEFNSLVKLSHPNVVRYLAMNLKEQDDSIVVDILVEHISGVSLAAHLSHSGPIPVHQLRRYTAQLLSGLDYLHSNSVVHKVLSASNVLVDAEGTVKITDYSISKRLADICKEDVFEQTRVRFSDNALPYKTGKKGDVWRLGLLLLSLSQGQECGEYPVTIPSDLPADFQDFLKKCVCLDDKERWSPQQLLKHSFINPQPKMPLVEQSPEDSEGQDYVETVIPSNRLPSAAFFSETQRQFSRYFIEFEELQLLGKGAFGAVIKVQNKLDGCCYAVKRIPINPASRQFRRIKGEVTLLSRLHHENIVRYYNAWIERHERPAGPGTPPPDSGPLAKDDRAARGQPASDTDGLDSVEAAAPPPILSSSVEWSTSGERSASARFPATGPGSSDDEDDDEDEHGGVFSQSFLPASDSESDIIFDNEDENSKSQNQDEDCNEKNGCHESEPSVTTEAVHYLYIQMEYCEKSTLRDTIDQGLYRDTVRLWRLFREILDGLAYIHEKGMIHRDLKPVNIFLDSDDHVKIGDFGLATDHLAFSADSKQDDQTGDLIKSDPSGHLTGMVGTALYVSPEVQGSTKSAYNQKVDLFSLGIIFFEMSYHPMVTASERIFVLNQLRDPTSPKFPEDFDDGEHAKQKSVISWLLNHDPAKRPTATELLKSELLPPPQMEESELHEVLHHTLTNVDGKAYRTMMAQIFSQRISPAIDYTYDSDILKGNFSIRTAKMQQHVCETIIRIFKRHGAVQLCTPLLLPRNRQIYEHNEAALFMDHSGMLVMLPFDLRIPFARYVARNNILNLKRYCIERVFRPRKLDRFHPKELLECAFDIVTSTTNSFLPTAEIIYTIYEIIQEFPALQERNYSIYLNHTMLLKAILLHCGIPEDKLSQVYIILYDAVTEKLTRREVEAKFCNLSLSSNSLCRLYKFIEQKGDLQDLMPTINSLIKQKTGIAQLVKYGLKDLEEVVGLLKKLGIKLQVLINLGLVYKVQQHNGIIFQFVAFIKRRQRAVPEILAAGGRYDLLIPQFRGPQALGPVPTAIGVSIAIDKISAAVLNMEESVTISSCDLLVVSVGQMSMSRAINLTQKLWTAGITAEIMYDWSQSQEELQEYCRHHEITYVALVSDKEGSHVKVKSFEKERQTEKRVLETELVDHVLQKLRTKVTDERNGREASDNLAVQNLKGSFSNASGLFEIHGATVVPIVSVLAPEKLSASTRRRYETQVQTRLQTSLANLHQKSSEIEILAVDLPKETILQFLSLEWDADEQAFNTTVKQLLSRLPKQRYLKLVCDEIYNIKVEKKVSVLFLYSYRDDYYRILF

SMILES	pIC50 [1]	pIC50 [2]	pIC50 [3]	pIC50 [4]	pIC50 [5]	pIC50 [6]
COc1ncc(Cl)cc1S(=O)(=O)Nc1cccc(-c2cc3cnc(Nc4cnn(C)c4)nc3nc2C)c1F [Example 88]	≥ 7.00	6.30 to 7.00	≥ 7.00	≥ 7.00	≥ 7.00	≥ 7.00
COc1ncc(Cl)cc1S(=O)(=O)Nc1cccc(-c2cnc3nc(Nc4cnn(C)c4)ncc3c2)c1 [Example 59]	≥ 7.00	5.00 to 6.00	6.30 to 7.00	≥ 7.00	≥ 7.00	≥ 7.00
CNc1cc2nc(C)c(-c3cc(NS(=O)(=O)c4cc(Cl)cc(CO)c4Cl)c(F)cc3Br)cc2cn1 [Example 14]	6.00 to 6.30	5.00 to 6.00	6.30 to 7.00	6.30 to 7.00	≥ 7.00	5.00 to 6.00
CNc1ncc2cc(-c3cccc(NS(=O)(=O)c4cc(Cl)cnc4OC)c3F)c(N)nc2n1 [Example 61]	≥ 7.00	6.30 to 7.00	≥ 7.00	≥ 7.00	≥ 7.00	≥ 7.00
CNc1ncc2cc(-c3cc(F)cc(NS(=O)(=O)c4cc(Cl)cc(CO)c4Cl)c3)c(NC)nc2n1 [Example 57]	≥ 7.00	5.00 to 6.00	≥ 7.00	≥ 7.00	≥ 7.00	≥ 7.00
CCNc1ncc2cc(-c3cccc(NS(=O)(=O)c4cc(Cl)cnc4OC)c3F)c(NC)nc2n1 [Example 115]	≥ 7.00	5.00 to 6.00	≥ 7.00	≥ 7.00	≥ 7.00	≥ 7.00
CNc1cc2nc(NC)c(-c3cccc(NS(=O)(=O)c4cc(Cl)cnc4OC)c3F)cc2cn1 [Example 114]	6.30 to 7.00	5.00 to 6.00	≥ 7.00	≥ 7.00	≥ 7.00	≥ 7.00
CNc1cc2nc(C)c(-c3cccc(NS(=O)(=O)c4cc(Cl)cnc4NC)c3F)cc2cn1 [Example 78]	≥ 7.00	6.00 to 6.30	≥ 7.00	≥ 7.00	≥ 7.00	≥ 7.00
CNc1ncc2cc(-c3cccc(NS(=O)(=O)c4cc(Cl)cnc4OC)c3)c(N)nc2n1 [Example 64]	≥ 7.00	5.00 to 6.00	6.30 to 7.00	≥ 7.00	≥ 7.00	≥ 7.00
CNc1cc2nc(NC)c(-c3cccc(NS(=O)(=O)c4cc(Cl)cnc4OC)c3Cl)cc2cn1 [Example 113]	6.30 to 7.00	6.00 to 6.30	6.30 to 7.00	≥ 7.00	6.30 to 7.00	≥ 7.00
CNc1ncc2cc(-c3cc(NS(=O)(=O)c4cc(Cl)cnc4OC)ccc3F)c(NC)nc2n1 [Example 39]	6.30 to 7.00	5.00 to 6.00	6.30 to 7.00	≥ 7.00	≥ 7.00	6.30 to 7.00
COc1nc2nc(N)ncc2cc1-c1ccnc(NS(=O)(=O)c2cc(Cl)cnc2OC)c1F [Example 135]	5.00 to 6.00	5.00 to 6.00	6.30 to 7.00	6.30 to 7.00	≥ 7.00	6.00 to 6.30
CNc1cc2nc(C)c(-c3cc(NS(=O)(=O)c4cc(Cl)cnc4OC)cc(F)c3F)cc2cn1 [Example 143]	≥ 7.00	5.00 to 6.00	≥ 7.00	≥ 7.00	≥ 7.00	≥ 7.00
